The results in this text go back to ChEMBL document CHEMBL3763009, “Discovery of antiviral molecules for dengue: In silico search and biological evaluation” (Eur J Med Chem, 2016).

A short description of series [1]: Cytotoxicity against human HepG2 cells assessed as cell viability after 72 hrs by MTT assay. It is filed as cell-based.
Series [2] can be described thus: Selectivity index, ratio of CC50 for human HepG2 cells to IC50 for Dengue virus 2 infected in human HepG2 cells. It is filed as functional.
Series [3] concerns dengue virus type 2. Put plainly: Antiviral activity against Dengue virus 2 infected in human HepG2 cells assessed as reduction in NS1 level at 49.2 uM administered 1 hr postinfection measured after 72 hrs by sandwich ELISA relative to control. It is filed as functional. Further details: scale not given: the % may be the effect or the level left. (ELISA stands for enzyme-linked immunosorbent assay.)

The test system of series [4] is dengue virus type 2. Kind of series: (§1) Inhibition of Dengue virus 2 recombinant 6xHis-tagged NS2B/NS3 serine protease using Boc-Gly-Arg-Arg-AMC as substrate measured for 60 mins by fluorimetric analysis.
Series [5] in a line: as §1. Set-up: species or system dengue virus type 2.
Series [6] has as its system dengue virus type 2. Put plainly: Antiviral activity against Dengue virus 2 infected in human HepG2 cells assessed as reduction in NS1 level after 72 hrs by sandwich ELISA. As to conditions: HepG2, 72 h. It is filed as functional, organism-based.
Series [7] concerns dengue virus type 2. Put plainly: Antiviral activity against Dengue virus 2 infected in human HepG2 cells assessed as reduction in NS1 level at 85.7 uM administered 1 hr postinfection measured after 72 hrs by sandwich ELISA relative to control. Further details: scale not given: the % may be the effect or the level left. It is filed as functional.
Series [8] concerns dengue virus type 2. Kind of series: Antiviral activity against Dengue virus 2 infected in human HepG2 cells assessed as reduction in NS1 level at 9.8 uM administered 1 hr postinfection measured after 72 hrs by sandwich ELISA relative to control. It is filed as functional. Further details: scale not given: the % may be the effect or the level left.
Series [9] concerns dengue virus type 2. Kind of series: Antiviral activity against Dengue virus 2 infected in human HepG2 cells assessed as reduction in NS1 level at 19.5 uM after 72 hrs by sandwich ELISA relative to control. It is filed as functional. Set-up: scale not given: the % may be the effect or the level left.
Series [10] has as its system HepG2. Put plainly: Cytotoxicity against human HepG2 cells assessed as reduction in cell viability up to 100 uM after 72 hrs by MTT assay. It is filed as cell-based. As to conditions: hepg2, 72 h. (In general: Tetrazolium assays rely on reduction of a dye to a coloured formazan, in cell work by metabolically active cells.)
Series [11] has as its system dengue virus type 2. Kind of series: Antiviral activity against Dengue virus 2 infected in human HepG2 cells assessed as reduction in NS1 level at 100 uM administered 1 hr postinfection measured after 72 hrs by sandwich ELISA relative to control. It is filed as functional, organism-based.
Series [12] has as its system dengue virus type 2. Put plainly: Antiviral activity against Dengue virus 2 infected in human HepG2 cells assessed as reduction in NS1 level at 13.5 uM administered 1 hr postinfection measured after 72 hrs by sandwich ELISA relative to control. It is filed as functional. Further details: scale not given: the % may be the effect or the level left.
The subject of series [13] is dengue virus type 2. Kind of series: Antiviral activity against Dengue virus 2 infected in human HepG2 cells assessed as reduction in NS1 level at 12.5 uM administered 1 hr postinfection measured after 72 hrs by sandwich ELISA relative to control. It is filed as functional, organism-based.
The test system of series [14] is HepG2. Put plainly: Cytotoxicity against human HepG2 cells assessed as reduction in cell viability up to 12.5 uM after 72 hrs by MTT assay. It is filed as cell-based. The conditions noted are these: hepg2, 72 h.
Series [15] deals with dengue virus type 2. Kind of series: Antiviral activity against Dengue virus 2 infected in human HepG2 cells assessed as NS1 level at < maximum non-toxic concentration after 72 hrs by sandwich ELISA (reference value: 44.5 +/- 3.2 PbU). It is filed as functional.

Active and inactive are the calls of the source. The rule behind the calls is not given here.

The term CC50 denotes the concentration giving 50% cytotoxicity. For orientation: IC50 means the concentration that inhibits the measured activity by half.

On to `COc1ccc(C(c2c(O)c3ccccc3oc2=O)c2c(O)c3ccccc3oc2=O)cc1COc1ccc(NC(C)=O)cc1`, for which, in [1], the CC50 at 72 h was 162 µM. Also, the “Ratio CC50/IC50” value in [2] amounted to 2.6. The Activity in the series on dengue virus type 2 [3] stood at 37%; with dengue virus type 2 [7] it was 79.9%. In addition, the inhibition result with dengue virus type 2 [4] was “Dose-dependent effect”. Moreover, the results for the IC50 (in [5]; in the series with dengue virus type 2 [6]) were 19.9 µM and 61.5 µM, respectively.

Consider `CC1(C)CC(=O)C2=C(C1)c1c(ccc3ccccc13)NC2c1ccc(-c2ccc(O)c(C(=O)O)c2)o1` (centres undefined), for which the CC50 at 72 h in series [1] was 58.6 µM. Also, in series [2], the “Ratio CC50/IC50” value is listed as 3.9. Also, the Activity in the series on dengue virus type 2 [8] was determined as 15.5%; with dengue virus type 2 [9], 69.8%. The inhibition result in the series on dengue virus type 2 [4] was “Dose-dependent effect”. For the same molecule, the figures for the IC50 (in [5]; in the series on dengue virus type 2 [6]) were 17.5 µM and 14.9 µM, respectively.

For the molecule `Cc1ccc2nc(-c3ccc(NC(=O)c4c(O)c5c(n(Cc6ccco6)c4=O)CCCC5)cc3)sc2c1`, the Activity result in the series with HepG2 [10] is “Non-toxic”. The inhibition entry in the series with dengue virus type 2 [4] is “Dose-dependent effect”. Besides, the IC50 in series [5] amounted to 608 µM. Also, the result with dengue virus type 2 [11] was inactive.

Turning to `COc1ccc(C(c2c(O)c3ccccc3oc2=O)c2c(O)c3ccccc3oc2=O)cc1CSc1nc2ccccc2s1`, the CC50 at 72 h in series [1] came out at 42.1 µM. Besides, the “Ratio CC50/IC50” value in series [2] stood at 3.6. For the same molecule, the inhibition entry with dengue virus type 2 [4] is “Dose-dependent effect”. In addition, the IC50 was 9.09 µM in series [5] and 11.8 µM in the series on dengue virus type 2 [6]. In the series on dengue virus type 2 [12], the Activity is recorded as 73.9%.

On to `O=c1oc2ccccc2c(O)c1C1c2ccccc2Oc2c1c(=O)oc1ccccc21` (centres undefined), for which the result in the series with dengue virus type 2 [13] was inactive. Besides, the Activity result in the series with HepG2 [14] is given as “Non-toxic”. In addition, in the series with dengue virus type 2 [4], the inhibition entry was “Dose-dependent effect”. In addition, the half-inhibitory concentration (IC50) in series [5] turned out to be 18.9 µM.

With `NC(=O)c1ncn([C@@H]2O[C@H](CO)[C@@H](O)[C@H]2O)n1` [RIBAVIRIN], the Activity in the series on dengue virus type 2 [15] worked out at 8.3 PbU.
